The assay relates to HT29 xenograft, nude mice, s.c., tumor weight T/C%. Briefly: NCI In Vivo Anticancer Drug Screen. Data for tumor model HT29;CX-1 Human Adenocarcinoma (MER+) (subcutaneous) in NU/NU Swiss (nude) mice. The following applies: endpoint: optimum tumor weight change, higher = larger tumour. The protocol:
The antitumor activity of compounds was measured in mice bearing transplantable tumors. Survival or tumor size were measured and the results are expressed as the measurement made in the treated group (T) divided by the measurement made in the vehicle treated control group (C). The tumor model used in this assay is HT29;CX-1 Human Adenocarcinoma (MER+) (subcutaneous) in NU/NU Swiss (nude) mice

[1] abbreviates: dose: 12.5 mg/kg/injection, schedule: Q04DX003 (ip), vehicle: saline.
The mark [2] stands for this setting: dose: 25.0 mg/kg/injection, schedule: Q04DX003 (ip), vehicle: saline.
Setting [3] is: dose: 50.0 mg/kg/injection, schedule: Q04DX003 (ip), vehicle: saline.
The mark [4] stands for this setting: dose: 25.0 mg/kg/injection, schedule: Q04DX003 (ip), vehicle: Klucel (hydroxypropylcellulose) (HPC).
Where [5] appears, read: dose: 50.0 mg/kg/injection, schedule: Q04DX003 (ip), vehicle: Klucel (hydroxypropylcellulose) (HPC).
[6] abbreviates: dose: 100.0 mg/kg/injection, schedule: Q04DX003 (ip), vehicle: Klucel (hydroxypropylcellulose) (HPC).
Where [7] appears, read: dose: 100.0 mg/kg/injection, schedule: Q04DX003 (ip), vehicle: saline.
Setting [8] is: dose: 200.0 mg/kg/injection, schedule: Q04DX003 (ip), vehicle: saline.
The mark [9] stands for this setting: dose: 400.0 mg/kg/injection, schedule: Q04DX003 (ip), vehicle: saline.
Where [10] appears, read: dose: 50.0 mg/kg/injection, schedule: Q04DX003 (ip), vehicle: suspension in saline.
Setting [11] is: dose: 12.5 mg/kg/injection, schedule: Q04DX003 (ip), vehicle: Klucel (hydroxypropylcellulose) (HPC).
[12] abbreviates: dose: 200.0 mg/kg/injection, schedule: Q04DX003 (ip), vehicle: saline with Tween-80.

Each structure is given as a SMILES string. Values joined by “and” are separate entries in the source; they are usually repeats but may differ in a detail not shown here. Identical values can stand only once.

Regarding `C=C(C)[C@H]1Cc2c(ccc3c2O[C@@H]2COc4cc(OC)c(OC)cc4[C@@H]2C3=O)O1`, the T/C is, setting by setting: (dose: 3.0 mg/kg/injection, schedule: Q04DX003 (ip), vehicle: suspension in saline) 90 % of control; (dose: 6.0 mg/kg/injection, schedule: Q04DX003 (ip), vehicle: suspension in saline) 77 % of control; (dose: 12.0 mg/kg/injection, schedule: Q04DX003 (ip), vehicle: suspension in saline) 91 % of control; under setting [1], 70 % of control; under setting [2], 102 % of control; under setting [3], 50 % of control.
Consider `O=S(CCCl)CCCl`, for which the T/C is 72 % of control under setting [4], 51 % of control under setting [5] and 65 % of control under setting [6].
In the case of `CO[C@H]1C[C@](C)(O)Cc2cc3c(c(O)c21)C(=O)c1c(O)cc2c(c1C3=O)O[C@@H]1O[C@@]2(C)[C@H](O)[C@@H](N(C)C)[C@@H]1O`, the T/C (dose: 3.13 mg/kg/injection, schedule: Q04DX003 (ip), vehicle: other) is 97 % of control; the T/C (dose: 6.25 mg/kg/injection, schedule: Q04DX003 (ip), vehicle: other) is 124 % of control; the T/C (dose: 12.5 mg/kg/injection, schedule: Q04DX003 (ip), vehicle: other) is 68 % of control; the T/C (dose: 25.0 mg/kg/injection, schedule: Q04DX003 (ip), vehicle: other) was 61 % of control and 75 % of control.
For `c1cc2n(n1)CCN2`, the T/C runs as follows: under setting [3], 42 % of control; under setting [7], 50 % of control; under setting [8], 63 % of control; under setting [9], 41 % of control.
Turning to `O=P1(NCCCl)OCCCN1CCCl` (stereo not given), the T/C was 78 % of control (dose: 25.0 mg/kg/injection, schedule: Q04DX003 (ip), vehicle: suspension in saline) and 108 % of control under setting [10].
Turning to `CCOC(=O)Nc1cc2c(c(N)n1)N=C(CN(C)c1ccccc1)CN2`, the T/C under setting [11] is 74 % of control, the T/C under setting [4] is 116 % of control, the T/C under setting [5] was 71 % of control and the T/C under setting [6] is 90 % of control.
Take `CN1CCN(CCCN2c3ccccc3Sc3ccc(C(F)(F)F)cc32)CC1`: under setting [3], the T/C was 79 % of control.
With `CN(C)N=Nc1ccccc1`, the T/C under setting [4] is 64 % of control and the T/C under setting [5] is 83 % of control.
With `OCC1OC(n2cnc3cncnc32)C(O)C1O` (stereo not given), the T/C was 49 % of control under setting [1] and 48 % of control under setting [2].
With `CCCCNCCCNCCCNC(=O)c1csc(-c2csc(CCNC(=O)C(NC(=O)C(C)C(O)C(C)NC(=O)C(NC(=O)c3nc(C(CC(N)=O)NCC(N)C(N)=O)nc(N)c3C)C(OC3OC(CO)C(O)C(O)C3OC3OC(CO)C(O)C(OC(N)=O)C3O)c3cnc[nH]3)C(C)O)n2)n1` (stereo not given), the T/C (dose: 7.5 mg/kg/injection, schedule: Q04DX003 (ip), vehicle: saline) was 75 % of control; the T/C (dose: 15.0 mg/kg/injection, schedule: Q04DX003 (ip), vehicle: saline) was 28 % of control; the T/C (dose: 15.0 mg/kg/injection, schedule: Q04DX004 (ip), vehicle: saline) was 40 % of control; the T/C (dose: 30.0 mg/kg/injection, schedule: Q04DX003 (ip), vehicle: saline) is 19 % of control and 33 % of control; the T/C (dose: 30.0 mg/kg/injection, schedule: Q04DX004 (ip), vehicle: saline) was 38 % of control; the T/C (dose: 60.0 mg/kg/injection, schedule: Q04DX003 (ip), vehicle: saline) is 20 % of control. Further, the T/C (dose: 60.0 mg/kg/injection, schedule: Q04DX004 (ip), vehicle: saline) was 18 % of control and the T/C (dose: 120.0 mg/kg/injection, schedule: Q04DX003 (ip), vehicle: saline) is 2 % of control.
Turning to `CS(=O)(=O)OCCN(CCOS(C)(=O)=O)c1ccc(C=Nc2ccc(-c3csc(COc4ccccc4)n3)cc2)cc1`, the T/C is 71 % of control under setting [6] and 70 % of control (dose: 200.0 mg/kg/injection, schedule: Q04DX003 (ip), vehicle: Klucel (hydroxypropylcellulose) (HPC)).
Take `O=[N+]([O-])/C=C\c1ccc2c(c1)OCO2`: the T/C under setting [5] was 116 % of control.
With `CCOC(=O)C1C2OC(=O)C(C(=O)C2CN(CCCl)CCCl)C1C1CC=C(CC2=CCC(C3C4C(=O)OC(C(CN(CCCl)CCCl)C4=O)C3C(=O)OCC)CC2)CC1` (stereo not given), the T/C under setting [4] is 91 % of control, the T/C under setting [5] was 66 % of control and the T/C under setting [6] was 69 % of control.
Take `CSc1cc(=O)n2c3ccccc3c3ccnc1c32`: the T/C (dose: 20.0 mg/kg/injection, schedule: Q04DX003 (ip), vehicle: saline with Tween-80) is 101 % of control; the T/C (dose: 160.0 mg/kg/injection, schedule: Q04DX003 (ip), vehicle: saline with Tween-80) was 89 % of control and 99 % of control; the T/C (dose: 320.0 mg/kg/injection, schedule: Q04DX003 (ip), vehicle: saline with Tween-80) is 82 % of control; the T/C (dose: 640.0 mg/kg/injection, schedule: Q04DX003 (ip), vehicle: saline with Tween-80) is 81 % of control.
For the compound `O=C1N(Cl)C(=O)C(c2ccc(Cl)cc2)(c2ccc(Cl)cc2)N1Cl`, the T/C is 103 % of control (dose: 100.0 mg/kg/injection, schedule: Q04DX003 (ip), vehicle: saline with Tween-80) and 108 % of control under setting [12].
Take `COC1C(O)CC(OC2CC(OC3CC(O[C@@H]4C(=O)c5c(cc6cc(OC7CC(OC8CC(O)C(O)C(C)O8)C(O)C(C)O7)c(C)c(O)c6c5O)C[C@H]4[C@H](OC)C(=O)[C@@H](O)[C@@H](C)O)OC(C)C3O)OC(C)C2O)OC1C` (stereo not given in full): for the setting “dose: 1.5 mg/kg/injection, schedule: Q04DX003 (ip), vehicle: saline”, the T/C was 52 % of control.
Take `C1CCC2[N-]CC3CCCCC3[N-]CC3CCCCC3[N-]CC3CCCCC3[N-]CC2C1.[Cu]` (stereo not given): the T/C was 62 % of control (dose: 3.13 mg/kg/injection, schedule: Q04DX003 (ip), vehicle: Klucel (hydroxypropylcellulose) (HPC)); 90 % of control (dose: 6.25 mg/kg/injection, schedule: Q04DX003 (ip), vehicle: Klucel (hydroxypropylcellulose) (HPC)); 70 % of control under setting [11]; 94 % of control under setting [4].
Consider `CC[C@](O)(C(=O)O)c1cc2n(c(=O)c1CO)Cc1cc3ccccc3nc1-2`, for which the T/C (dose: 9.0 mg/kg/injection, schedule: Q04DX003 (ip), vehicle: saline) was 36 % of control.
Turning to `Nc1cc2[nH]cnc2c(=O)[nH]1`, the T/C is 89 % of control under setting [3], 83 % of control under setting [7] and 93 % of control under setting [8].
As for `CCN(CC)CCCC(C)Nc1c2ccc(Cl)cc2nc2ccc(OC)cc12` (stereo not given), the T/C (dose: 50.0 mg/kg/injection, schedule: Q04DX003 (ip), vehicle: saline with Tween-80) was 89 % of control and the T/C under setting [12] was 91 % of control.
On to `Nc1ccc(Cl)cc1N`, for which the T/C is 87 % of control (dose: 400.0 mg/kg/injection, schedule: Q04DX003 (ip), vehicle: saline with Tween-80) and 98 % of control (dose: 800.0 mg/kg/injection, schedule: Q04DX003 (ip), vehicle: saline with Tween-80).
As to `Cc1c(CNc2ccc(C(=O)NC(CC(=O)O)C(=O)O)cc2)ccc2nc(N)nc(N)c12` (stereo not given), the T/C is, setting by setting: (dose: 3.0 mg/kg/injection, schedule: Q04DX003 (ip), vehicle: saline with Tween-80) 109 % of control; (dose: 6.0 mg/kg/injection, schedule: Q04DX003 (ip), vehicle: saline with Tween-80) 153 % of control; (dose: 12.0 mg/kg/injection, schedule: Q04DX003 (ip), vehicle: saline with Tween-80) 92 % of control.
As to `CNC=O`, the T/C is 168 % of control under setting [8]; 78 % of control under setting [9]; 104 % of control (dose: 800.0 mg/kg/injection, schedule: Q04DX003 (ip), vehicle: saline).
`CCCC(=O)OCc1cc(=O)n(C)c2c3c4c(cc12)c(C)cc(=O)n4CO3`: the T/C under setting [5] was 53 % of control.
As for `N=C(N)SCc1c2ccccc2c(CSC(=N)N)c2ccccc12`, under setting [10], the T/C was 88 % of control.
In the case of `O=C[C@@H](CO)O[C@H](C=O)n1cnc2c(=O)[nH]cnc21`, the T/C runs as follows: under setting [7], 57 % of control; under setting [8], 85 % of control; under setting [9], 48 % of control.
As for `COc1cccc2c1C(=O)c1c(O)c3c(c(O)c1C2=O)C[C@@](O)(/C(C)=N\O)C[C@@H]3OC1CC(N)C(O)C(C)O1` (stereo not given in full), the T/C is, setting by setting: (dose: 6.25 mg/kg/injection, schedule: Q04DX003 (ip), vehicle: saline) 68 % of control; under setting [1], 63 % of control; under setting [2], 56 % of control.

The T/C is the result in the treated group divided by that in the control group, in per cent.
